Test results published in ChEMBL document CHEMBL5346866, “What about the progress in the synthesis of flavonoid from 2020?” (Eur J Med Chem, 2022).

Tests used:
Assay type in all cases: functional, cell-based
[1] = system: HCC1954; assay: Anti-proliferative activity against human HCC1954 cells assessed as cell growth inhibition incubated for 72 hrs by CCK-8 assay; details: HCC1954, 72 h
[2] = system: SK-OV-3; assay: Anti-proliferative activity against human SK-OV-3 cells assessed as cell growth inhibition incubated for 72 hrs by CCK-8 assay; details: SK-OV-3, 72 h
[3] = system: HeLa; assay: Anti-proliferative activity against human HeLa cells assessed as cell growth inhibition incubated for 72 hrs by CCK-8 assay
[4] = system: DU-145; assay: Antiproliferative activity against human […] cells assessed as cell growth inhibition by SRB assay
[5] = system: PC-3; assay: Antiproliferative activity against human PC-3 cells assessed as cell growth inhibition by SRB assay

SMILES	IC50 [1]	IC50 [2]	IC50 [3]	IC50 [4]	IC50 [5]
COc1ccc(-c2oc3cc(O)cc(O)c3c(=O)c2OCc2cn([C@@H]3O[C@H](COC(C)=O)[C@@H](OC(C)=O)[C@H](OC(C)=O)[C@H]3OC(C)=O)nn2)cc1O	43400 nM	30600 nM	–	–	–
COc1ccc(-c2cc(=O)c3c(C)cc(OCc4cn([C@@H]5O[C@H](COC(C)=O)[C@@H](O[C@H]6O[C@H](COC(C)=O)[C@@H](OC(C)=O)[C@H](OC(C)=O)[C@H]6OC(C)=O)[C@H](OC(C)=O)[C@H]5OC(C)=O)nn4)cc3o2)cc1	–	–	14700 nM	–	–
C[C@@]1([N+](=O)[O-])C(=O)c2cc(F)ccc2O[C@H]1CC(=O)NC12CC3CC(CC(C3)C1)C2	–	–	–	640 nM	820 nM
C[C@]1([N+](=O)[O-])C(=O)c2cc(F)ccc2O[C@@H]1CC(=O)NC12CC3CC(CC(C3)C1)C2	–	–	–	1650 nM	1540 nM
CC1([N+](=O)[O-])C(=O)c2cc(F)ccc2OC1CC(=O)NC12CC3CC(CC(C3)C1)C2 (racemic)	–	–	–	1210 nM	940 nM
